Experimental data reported in ChEMBL document CHEMBL3044789, “Comparing weed and crop seedling response to pre-emergence pendimethalin application in Corchorus olitorius and Abelmoschus esculentus” (Crop Prot, 2006).

Experiments:
[1] = test system: Rottboellia cochinchinensis; test: Herbicidal activity against Rottboellia cochinchinensis in Abelmoschus esculentus plots assessed as weed cover at 0.33 kg a.i/ha after 7 weeks (reference value: 14.7 +/- 0.46 %); type: functional
Corchorus olitorius [2] = test: Phytotoxicity in Corchorus olitorius assessed as seedling injury at 0.66 kg a.i/ha applied as solution after 7 weeks relative to control; type: organism-based; conditions: in vivo, other, 1176 h
Calopogonium mucunoides [3] = test: Herbicidal activity against Calopogonium mucunoides in Corchorus olitorius plots assessed as weed cover at 0.33 kg a.i/ha after 4 weeks (reference value: 20.1+/- 0.57 %); type: functional
Corchorus olitorius [4] = test: Phytotoxicity in Corchorus olitorius assessed as seed germination at 0.99 kg a.i/ha applied as solution after 7 weeks relative to untreated control; type: organism-based; conditions: in vivo, other, 1176 h
Euphorbia heterophylla [5] = test: Herbicidal activity against Euphorbia heterophylla in Corchorus olitorius plots assessed as weed cover at 0.66 kg a.i/ha after 4 weeks (reference value: 20.1+/- 0.57 %); type: functional
Calopogonium mucunoides [6] = test: Herbicidal activity against Calopogonium mucunoides in Corchorus olitorius plots assessed as major weed growth at 1.32 kg a.i/ha after 2 weeks; type: functional
Abelmoschus esculentus [7] = test: Phytotoxicity in Abelmoschus esculentus assessed as shoot length at 0.33 kg a.i/ha treated to soil after 7 weeks (reference value: 8.5 +/- 0.34 mm); type: organism-based; conditions: in vivo, other, 1176 h
Euphorbia heterophylla [8] = test: Herbicidal activity against Euphorbia heterophylla in Corchorus olitorius plots assessed as major weed growth at 0.66 kg a.i/ha after 2 weeks; type: functional
Chromolaena odorata [9] = test: Herbicidal activity against Chromolaena odorata in Corchorus olitorius plots assessed as weed cover at 0.33 kg a.i/ha after 2 weeks (reference value: 81.7 +/- 0.43 %); type: functional
Abelmoschus esculentus [10] = test: Phytotoxicity in Abelmoschus esculentus assessed as shoot length at 0.99 kg a.i/ha applied as solution after 7 weeks (reference value: 28.7 +/- 0.34 mm); type: organism-based; conditions: in vivo, other, 1176 h
Chromolaena odorata [11] = test: Herbicidal activity against Chromolaena odorata in Corchorus olitorius plots assessed as weed recovery at 0.99 kg a.i/ha after 2 weeks (reference value: 78.3 +/- 0.74 %); type: functional
Corchorus olitorius [12] = test: Phytotoxicity in Corchorus olitorius assessed as seedling emergence at 1.32 kg a.i/ha treated to soil after 7 weeks (reference value: 95 +/- 0.05 %); type: organism-based; conditions: in vivo, other, 1176 h
Abelmoschus esculentus [13] = test: Phytotoxicity in Abelmoschus esculentus assessed as root length at 0.99 kg a.i/ha applied as solution after 7 weeks (reference value: 23 +/- 0.34 mm); type: organism-based; conditions: in vivo, other, 1176 h
Abelmoschus esculentus [14] = test: Phytotoxicity in Abelmoschus esculentus assessed as seed germination at 0.66 kg a.i/ha applied as solution after 7 weeks (reference value: 85.7 +/- 0.36 %); type: organism-based; conditions: in vivo, other, 1176 h
Cyperus rotundus [15] = test: Herbicidal activity against Cyperus rotundus in Abelmoschus esculentus plots assessed as weed cover at 0.66 kg a.i/ha after 2 weeks (reference value: 63.5 +/- 0.29 %); type: functional
Calopogonium mucunoides [16] = test: Herbicidal activity against Calopogonium mucunoides in Abelmoschus esculentus plots assessed as major weed growth at 0.33 kg a.i/ha after 2 weeks; type: functional
Chromolaena odorata [17] = test: Herbicidal activity against Chromolaena odorata in Corchorus olitorius plots assessed as weed cover at 0.33 kg a.i/ha after 4 weeks (reference value: 20.1+/- 0.57 %); type: functional
Abelmoschus esculentus [18] = test: Phytotoxicity in Abelmoschus esculentus assessed as seedling injury at 1.32 kg a.i/ha applied as solution after 7 weeks relative to control; type: organism-based; conditions: in vivo, other, 1176 h
Synedrella nodiflora [19] = test: Herbicidal activity against Synedrella nodiflora in Abelmoschus esculentus plots assessed as weed cover at 0.66 kg a.i/ha after 7 weeks (reference value: 14.7 +/- 0.46 %); type: functional
Synedrella nodiflora [20] = test: Herbicidal activity against Synedrella nodiflora in Corchorus olitorius plots assessed as weed cover at 1.32 kg a.i/ha after 7 weeks (reference value: 1.7 +/- 0.56 %); type: functional
Chromolaena odorata [21] = test: Herbicidal activity against Chromolaena odorata in Corchorus olitorius plots assessed as weed cover at 0.99 kg a.i/ha after 2 weeks (reference value: 81.7 +/- 0.43 %); type: functional
Calopogonium mucunoides [22] = test: Herbicidal activity against Calopogonium mucunoides in Abelmoschus esculentus plots assessed as weed recovery at 0.66 kg a.i/ha after 2 weeks (reference value: 60.1 +/- 0.46 %); type: functional
Synedrella nodiflora [23] = test: Herbicidal activity against Synedrella nodiflora in Corchorus olitorius plots assessed as weed recovery at 1.32 kg a.i/ha after 2 weeks (reference value: 78.3 +/- 0.74 %); type: functional
Talinum fruticosum = test: Herbicidal activity against Talinum fruticosum in Corchorus olitorius plots assessed as minor weed growth at 0.99 kg a.i/ha after 2 weeks; type: functional
Synedrella nodiflora [24] = test: Herbicidal activity against Synedrella nodiflora in Abelmoschus esculentus plots assessed as major weed growth at 0.99 kg a.i/ha after 2 weeks; type: functional
Euphorbia heterophylla [25] = test: Herbicidal activity against Euphorbia heterophylla in Abelmoschus esculentus plots assessed as weed cover at 0.66 kg a.i/ha after 2 weeks (reference value: 63.5 +/- 0.29 %); type: functional
Synedrella nodiflora [26] = test: Herbicidal activity against Synedrella nodiflora in Corchorus olitorius plots assessed as weed cover at 0.66 kg a.i/ha after 7 weeks (reference value: 1.7 +/- 0.56 %); type: functional
Synedrella nodiflora [27] = test: Herbicidal activity against Synedrella nodiflora in Abelmoschus esculentus plots assessed as weed cover at 0.33 kg a.i/ha after 4 weeks (reference value: 22.6 +/- 0.49 %); type: functional
Synedrella nodiflora [28] = test: Herbicidal activity against Synedrella nodiflora in Corchorus olitorius plots assessed as weed cover at 0.99 kg a.i/ha after 7 weeks (reference value: 1.7 +/- 0.56 %); type: functional
Calopogonium mucunoides [29] = test: Herbicidal activity against Calopogonium mucunoides in Corchorus olitorius plots assessed as major weed growth at 0.33 kg a.i/ha after 2 weeks; type: functional
Calopogonium mucunoides [30] = test: Herbicidal activity against Calopogonium mucunoides in Abelmoschus esculentus plots assessed as major weed growth at 0.99 kg a.i/ha after 2 weeks; type: functional
Calopogonium mucunoides [31] = test: Herbicidal activity against Calopogonium mucunoides in Abelmoschus esculentus plots assessed as weed cover at 0.66 kg a.i/ha after 2 weeks (reference value: 63.5 +/- 0.29 %); type: functional
[32] = test system: Rottboellia cochinchinensis; test: Herbicidal activity against Rottboellia cochinchinensis in Corchorus olitorius plots assessed as weed cover at 0.33 kg a.i/ha after 4 weeks (reference value: 20.1+/- 0.57 %); type: functional
Euphorbia heterophylla [33] = test: Herbicidal activity against Euphorbia heterophylla in Corchorus olitorius plots assessed as weed recovery at 0.33 kg a.i/ha after 2 weeks (reference value: 78.3 +/- 0.74 %); type: functional
Cyperus rotundus [34] = test: Herbicidal activity against Cyperus rotundus in Corchorus olitorius plots assessed as weed cover at 0.66 kg a.i/ha after 2 weeks (reference value: 81.7 +/- 0.43 %); type: functional
Ageratum conyzoides = test: Herbicidal activity against Ageratum conyzoides in Corchorus olitorius plots assessed as weed recovery at 0.33 kg a.i/ha after 2 weeks (reference value: 78.3 +/- 0.74 %); type: functional
Euphorbia heterophylla [35] = test: Herbicidal activity against Euphorbia heterophylla in Abelmoschus esculentus plots assessed as major weed growth at 0.33 kg a.i/ha after 2 weeks; type: functional

CCC(CC)Nc1c([N+](=O)[O-])cc(C)c(C)c1[N+](=O)[O-] [PENDIMETHALIN]
Activity [1]: 90% | Activity (Corchorus olitorius [2]): 31.7% | Activity (Calopogonium mucunoides [3]): 73.3% | Activity (Corchorus olitorius [4]): 72.7% | Activity (Euphorbia heterophylla [5]): 63.3% | Activity (Calopogonium mucunoides [6]): 31 /m2 | Activity (Abelmoschus esculentus [7]): 8.6 mm | Activity (Euphorbia heterophylla [8]): 31 /m2 | Activity (Chromolaena odorata [9]): 63.3% | Activity (Abelmoschus esculentus [10]): 14.7 mm | Activity (Chromolaena odorata [11]): 21.7% | Activity (Corchorus olitorius [12]): 83.3% | Activity (Abelmoschus esculentus [13]): 11.8 mm | Activity (Abelmoschus esculentus [14]): 46% | Activity (Cyperus rotundus [15]): 50.8% | Activity (Calopogonium mucunoides [16]): 31 /m2 | Activity (Chromolaena odorata [17]): 73.3% | Activity (Abelmoschus esculentus [18]): 56.8% | Activity (Synedrella nodiflora [19]): 90% | Activity (Synedrella nodiflora [20]): 95% | Activity (Chromolaena odorata [21]): 51.7% | Activity (Calopogonium mucunoides [22]): 47.9% | Activity (Synedrella nodiflora [23]): 13.3% | Activity (Talinum fruticosum): 1 /m2 | Activity (Synedrella nodiflora [24]): 31 /m2 | Activity (Euphorbia heterophylla [25]): 50.8% | Activity (Synedrella nodiflora [26]): 100% | Activity (Synedrella nodiflora [27]): 53.8% | Activity (Synedrella nodiflora [28]): 95% | Activity (Calopogonium mucunoides [29]): 31 /m2 | Activity (Calopogonium mucunoides [30]): 31 /m2 | Activity (Calopogonium mucunoides [31]): 50.8% | Activity [32]: 73.3% | Activity (Euphorbia heterophylla [33]): 31.7% | Activity (Cyperus rotundus [34]): 51.7% | Activity (Ageratum conyzoides): 31.7% | Activity (Euphorbia heterophylla [35]): 31 /m2
